Experimental data: patent US20190388421A1, “NOVEL COMPOUNDS AND PHARMACEUTICAL COMPOSITIONS THEREOF FOR THE TREATMENT OF FIBROSIS” (Galapagos NV, priority 2016, published 2019)

Columns and labels:
[1] = molecular target: T1, human GPCR sphingosine 1-phosphate receptor 5 (S1PR5) (Homo sapiens, UniProt Q9H228); experiment: S1PR5 selectivity assay (Ca2+ flux, antagonist, S1PR5 specific agonist trigger); format: cell-based; conditions: S1P5 antagonist EC50, CHO cells overexpressing human S1PR5 and Gq protein
T1 construct: host or cells: CHO
T1 sequence (Q9H228 whole entry): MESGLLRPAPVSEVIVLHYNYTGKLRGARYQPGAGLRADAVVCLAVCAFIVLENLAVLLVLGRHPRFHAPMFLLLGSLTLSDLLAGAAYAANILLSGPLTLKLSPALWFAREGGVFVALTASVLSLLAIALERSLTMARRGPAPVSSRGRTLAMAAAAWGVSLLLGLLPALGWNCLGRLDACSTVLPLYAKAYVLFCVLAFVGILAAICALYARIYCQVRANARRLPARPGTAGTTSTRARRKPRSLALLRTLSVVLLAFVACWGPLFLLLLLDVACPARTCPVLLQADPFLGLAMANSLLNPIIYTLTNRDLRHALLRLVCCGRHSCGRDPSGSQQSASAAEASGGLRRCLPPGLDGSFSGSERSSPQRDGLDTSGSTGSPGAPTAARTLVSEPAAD
In short: (§1)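 CHO cells stably overexpressing human S1PR1 or S1PR5 with Gq were preincubated with compound 15 min at 37 °C, then stimulated with S1P at EC80 (S1PR1) or an S1PR5-specific agonist (S1PR5). Ca2+ fluorescence was read for 3 min; 10-point 1/3 dilutions from 20 μM final, normalized to vehicle and EC80 trigger, gave EC50.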

S1PR2 = molecular target: T2, S1PR2 (Homo sapiens, UniProt O95136); experiment: GTP-γS binding assay ([35S]GTPγS, S1P at EC80, S1PR2 membranes); format: biochemical; conditions: membranes from stable cell line over expressing S1PR2, read-out: S1PR2 EC
T2 construct: expressed in transfected cells
T2 sequence (O95136 whole entry): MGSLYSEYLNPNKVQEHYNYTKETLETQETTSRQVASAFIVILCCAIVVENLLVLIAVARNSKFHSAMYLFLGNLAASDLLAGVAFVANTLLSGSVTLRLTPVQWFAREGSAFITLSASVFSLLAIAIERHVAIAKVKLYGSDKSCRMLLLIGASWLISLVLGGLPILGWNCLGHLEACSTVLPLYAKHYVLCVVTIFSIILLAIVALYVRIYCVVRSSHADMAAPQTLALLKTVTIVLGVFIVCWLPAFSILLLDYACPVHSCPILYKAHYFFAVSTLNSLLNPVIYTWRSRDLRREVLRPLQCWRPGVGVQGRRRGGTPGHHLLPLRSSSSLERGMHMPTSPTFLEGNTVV
In short: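 Compounds tested against S1P at its EC80 on membranes (2.5 μg/well) from a stable S1PR2-overexpressing line, pre-incubated with 1 μM GDP 15 min at 4 °C. Buffer: 20 mM Tris pH 7.5, 10 mM MgCl2, 100 mM NaCl, 0.1% fatty-acid-free BSA, 50 ug/ml saponin. Incubated 4 h at room temperature; [35S]GTPγS binding read by WGA SPA beads.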

[2] = molecular target: T3, human GPCR sphingosine 1-phosphate receptor 2 (S1PR2) (Homo sapiens, UniProt O95136); experiment: S1P2 antagonist assay (Ca2+ flux, S1P at EC80); format: cell-based; conditions: CHO-S1PR2 cells, highest concentration 20 μM
T3 construct: host or cells: CHO
T3 sequence (O95136 whole entry): as above
In short: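 CHO cells stably overexpressing human S1PR2, serum-starved 1 h and loaded with Fluo8 dye, were read for 3 min after compound addition, then stimulated with S1P at EC80 after 15 min at 37 °C. Top concentration 20 μM in a 10-point 1/3 series; Ca2+ fluorescence ratio normalized to vehicle and S1P EC80, giving EC50.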

[3] = molecular target: T4, human GPCR sphingosine 1-phosphate receptor 1 (S1PR1) (Homo sapiens, UniProt P21453); experiment: S1PR1 selectivity assay (Ca2+ flux, antagonist); format: cell-based; conditions: S1P1 antagonist EC50, CHO cells overexpressing human S1PR1 and Gq protein
T4 construct: host or cells: CHO
T4 sequence (P21453 whole entry): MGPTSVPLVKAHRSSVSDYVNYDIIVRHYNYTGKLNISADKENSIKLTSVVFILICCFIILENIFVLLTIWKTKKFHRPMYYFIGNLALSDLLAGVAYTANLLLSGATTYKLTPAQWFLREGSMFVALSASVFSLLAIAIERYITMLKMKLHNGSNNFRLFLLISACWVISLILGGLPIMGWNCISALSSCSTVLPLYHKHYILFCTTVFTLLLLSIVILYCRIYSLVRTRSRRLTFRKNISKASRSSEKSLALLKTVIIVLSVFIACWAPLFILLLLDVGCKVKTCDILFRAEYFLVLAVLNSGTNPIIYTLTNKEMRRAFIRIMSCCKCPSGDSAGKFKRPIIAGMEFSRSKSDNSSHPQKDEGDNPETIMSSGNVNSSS
In short: as §1

HFL-1 cells [4] = experiment: IL8 assay in the presence of Human Serum Albumin; format: cell-based; conditions: HFL1, S1P (5 μM) induced IL-8, HFL-1 cells, with 2% HSA, read-out: HSA IL8 EC50
In short: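 Cells serum-starved with 1.95% HSA, pre-treated 1 h with compound (10-point 1/3 dilution from 30 μM, 0.3% DMSO), then stimulated with 5 μM S1P for 16 to 24 h at 37° C. Supernatant IL-8 measured by ELISA.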

HFL-1 cells [5] = experiment: IL8 assay (S1P induced IL-8 production); format: cell-based; conditions: Homo sapiens, HFL1; S1P (1 μM) induced IL-8, HFL-1 cells, without HSA
In short: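 Serum-starved human fetal lung fibroblasts were preincubated with compound for 1 h at 37° C (10-point, 1/3 dilution, top 30 μM, 0.3% DMSO). S1P at 1 μM final was then added for 16–24 h, and IL-8 in the supernatant was measured by ELISA.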

| SMILES | EC50 [1] [nM] | EC50 (S1PR2) [nM] | EC50 [2] [nM] | EC50 [3] [nM] | IC50 (HFL-1 cells [4]) [nM] | EC50 (HFL-1 cells [5]) [nM] |
| --- | --- | --- | --- | --- | --- | --- |
| CN(C)c1cc(CNC(=O)Nc2cc(Cl)nc(OCC(F)F)c2)nnc1-c1cn(C)nc1C(F)(F)F [Compound 63, 1-[2-chloro-6-(2,2-difluoroethoxy)-4-pyridyl]-3-[[5-(dimethylamino)-6-[1-methyl-3-(trifluoromethyl)pyrazol-4-yl]pyridazin-3-yl]methyl]urea] | 11000 | 298 | 66.8 | 2080 | 829 | 55.4 |
| CN(C)Cc1cc(CNC(=O)Nc2cc(Cl)nc(OCC(F)F)c2)nnc1-c1cn(C)nc1C(F)(F)F [Compound 65, 1-[2-chloro-6-(2,2-difluoroethoxy)-4-pyridyl]-3-[[5-(dimethylamino-methyl)-6-[1-methyl-3-(trifluoromethyl)pyrazol-4-yl]pyridazin-3-yl]methyl]urea] | ≥ 19800 | 1470 | 1620 | 6610 | 10000 | 2630 |
| CCOc1cc(NC(=O)NCc2cc(C)c(-c3cnn(C)c3C)nn2)cc(C(F)(F)F)n1 [Compound 69] | ≥ 19800 | 751 | 945 | ≥ 19800 | 9950 | 108 |
| CCOc1nc(C)cc(NC(=O)NCc2cc(C)c(-c3cn(C)nc3C(F)(F)F)nn2)c1Cl [Compound 71, 1-(3-chloro-2-ethoxy-6-methyl-4-pyridyl)-3-[[5-methyl-6-[1-methyl-3-(trifluoromethyl)pyrazol-4-yl]pyridazin-3-yl]methyl]urea] | 6610 | 25 | 9 | 6610 | 56 | 2 |
| CCOc1nc(C)cc(NC(=O)NCc2cc(C)c(-c3cn(C)nc3C(F)(F)F)nn2)c1C [Compound 72, 1-(2-ethoxy-3,6-dimethyl-4-pyridyl)-3-[[5-methyl-6-[1-methyl-3-(trifluoromethyl)pyrazol-4-yl]pyridazin-3-yl]methyl]urea] | 11000 | 25 | 9 | 16500 | 47 | 2 |
| Cc1cc(NC(=O)NCc2cc(C)c(-c3cn(C)nc3C(F)(F)F)nn2)c(C)c(OCC(F)F)n1 [Compound 74, 1-[2-(2,2-difluoroethoxy)-3,6-dimethyl-4-pyridyl]-3-[[5-methyl-6-[1-methyl-3-(trifluoromethyl)pyrazol-4-yl]pyridazin-3-yl]methyl]urea] | ≥ 19800 | 81 | 22 | 13000 | 118 | 15 |
| CCOc1cc(N/C(=N/C#N)NCc2cc(C)c(-c3cn(C)nc3C(F)(F)F)nn2)cc(C(F)(F)F)n1 [Compound 76, 2-cyano-1-[2-ethoxy-6-(trifluoromethyl)-4-pyridyl]-3-[[5-methyl-6-[1-methyl-3-(trifluoromethyl)pyrazol-4-yl]pyridazin-3-yl]methyl]guanidine] | 6610 | 62 | 17 | 13200 | 111 | 8 |
| CCOc1nc(C)cc(N/C(=N/C#N)NCc2cc(C)c(-c3cn(C)nc3C(F)(F)F)nn2)c1C [Compound 78, 2-cyano-1-(2-ethoxy-3,6-dimethyl-4-pyridyl)-3-[[5-methyl-6-[1-methyl-3-(trifluoromethyl)pyrazol-4-yl]pyridazin-3-yl]methyl]guanidine] | ≥ 19800 | 863 | 106 | ≥ 19800 | 1250 | 1090 |
| Cc1cc(NC(=NC#N)NCc2cc(C)c(-c3cn(C)nc3C(F)(F)F)nn2)c(C)c(OCC(F)F)n1 [Compound 79, 2-cyano-1-[2-(2,2-difluoroethoxy)-3,6-dimethyl-4-pyridyl]-3-[[5-methyl-6-[1-methyl-3-(trifluoromethyl)pyrazol-4-yl]pyridazin-3-yl]methyl]guanidine] | ≥ 19800 | 2130 | 546 | ≥ 19800 | 7040 | 439 |
| CCOc1nc(C(F)(F)F)cc(N/C(=N/C#N)NCc2cc(C)c(-c3cn(C)nc3C(F)(F)F)nn2)c1C [Compound 80, 2-cyano-1-[2-ethoxy-3-methyl-6-(trifluoromethyl)-4-pyridyl]-3-[[5-methyl-6-[1-methyl-3-(trifluoromethyl)pyrazol-4-yl]pyridazin-3-yl]methyl]guanidine] | 6610 | 45 | 13 | ≥ 19800 | 239 | 3 |
| Cc1cc(CNC(=O)Nc2cc(Cl)nc(OCC(F)F)c2)nnc1N1CCC(S(C)(=O)=O)C1 (stereo not drawn) [Compound 91, 1-[2-chloro-6-(2,2-difluoroethoxy)-4-pyridyl]-3-[[5-methyl-6-(3-methylsulfonyl-pyrrolidin-1-yl)pyridazin-3-yl]methyl]urea] | ≥ 19800 | 919 | 529 | ≥ 19800 | 2840 | 1250 |

Stronger by EC50 [1], values ahead:

| EC50 [1] [nM] | EC50 (S1PR2) [nM] | EC50 [2] [nM] | EC50 [3] [nM] | IC50 (HFL-1 cells [4]) [nM] | EC50 (HFL-1 cells [5]) [nM] | SMILES |
| --- | --- | --- | --- | --- | --- | --- |
| 4380 | 48.7 | 8.5 | 1620 | 119 | 16.6 | COc1cc(CNC(=O)Nc2cc(Cl)nc(OCC(F)F)c2)nnc1-c1cn(C)nc1C(F)(F)F [Compound 64, 1-[2-chloro-6-(2,2-difluoroethoxy)-4-pyridyl]-3-[[5-methoxy-6-[1-methyl-3-(trifluoromethyl)pyrazol-4-yl]pyridazin-3-yl]methyl]urea] |
| 2890 | 282 | 59 | ≥ 19800 | 223 | 38 | Cc1cc(NC(=O)NCc2cc(C)c(-c3cn(C)nc3C(F)(F)F)nn2)cc(OCC(F)F)n1 [Compound 75, 1-[2-(2,2-difluoroethoxy)-6-methyl-4-pyridyl]-3-[[5-methyl-6-[1-methyl-3-(trifluoromethyl)pyrazol-4-yl]pyridazin-3-yl]methyl]urea] |
| 3770 | 197 | 6 | 6610 | 10000 | 32 | CCOc1cc(NC(=O)NCc2cc(C)c(N3CCC(F)(F)C3)nn2)cc(Cl)n1 [Compound 81, 1-(2-Chloro-6-ethoxy-pyridin-4-yl)-3-[6-(3,3-difluoro-pyrrolidin-1-yl)-5-methyl-pyridazin-3-ylmethyl]-urea] |
| 341 | 156 | 6 | 6610 | 730 | 53.5 | CCOc1cc(NC(=O)NCc2cc(C)c(N3CC(C)OC(C)C3)nn2)cc(Cl)n1 (stereo not drawn) [Compound 82, 1-(2-Chloro-6-ethoxy-pyridin-4-yl)-3-[6-(2,6-dimethyl-morpholin-4-yl)-5-methyl-pyridazin-3-ylmethyl]-urea] |
| 249 | 331 | 42 | 1400 | 2170 | 82 | CCOc1cc(NC(=O)NCc2cc(C)c(N3CC(C)OC(C)C3)nn2)cc(C(F)(F)F)n1 (stereo not drawn) [Compound 87, 1-[[6-(2,6-dimethyl-morpholin-4-yl)-5-methyl-pyridazin-3-yl]methyl]-3-[2-ethoxy-6-(trifluoromethyl)-4-pyridyl]urea] |
| 839 | 422 | 34 | 3800 | 1580 | 33 | Cc1cc(CNC(=O)Nc2cc(Cl)nc(OCC(F)F)c2)nnc1N1CCOC(C(F)(F)F)C1 (stereo not drawn) [Compound 89, 1-[2-chloro-6-(2,2-difluoroethoxy)-4-pyridyl]-3-[[5-methyl-6-[2-(trifluoromethyl)morpholin-4-yl]pyridazin-3-yl]methyl]urea] |
| 2090 | 1170 | 452 | 6610 | 30000 | 244 | Cc1cc(CNC(=O)Nc2cc(Cl)nc(OCC(F)F)c2)nnc1N1CCC(F)(CO)C1 (stereo not drawn) [Compound 90, 1-[2-chloro-6-(2,2-difluoroethoxy)-4-pyridyl]-3-[[6-[3-fluoro-3-(hydroxymethyl)pyrrolidin-1-yl]-5-methyl-pyridazin-3-yl]methyl]urea] |
